Species on record: Rattus norvegicus
Experiment: Open TG-GATES - Regimen: Single
Format: toxicity, organism-based, Sprague-Dawley
Design: regimen Single, gender Male, age 6 weeks
Settings: in vivo, po, 0 mg/kg, route gavage, dose level Control; for APTT / Bas / Eos / Fbg / Hb / Ht / Lym / MCH / MCHC / MCV / Mono / Neu / PT / Plat / RBC / Ret / WBC: tissue Blood; for KIDNEY_L / KIDNEY_R / KIDNEY_TOTAL: tissue Kidney; for LIVER: tissue Liver; for A/G / ALP / ALT / AST / BUN / CRE / Ca / Cl / DBIL / GLC / IP / K / LDH / Na / PL / RALB / TBIL / TC / TG / TP / gamma-GTP: tissue Plasma

`CC(=O)[C@@]1(O)CC[C@H]2[C@@H]3C=C(Cl)C4=CC(=O)CC[C@]4(C)[C@H]3CC[C@@]21C` [CHLORMADINONE] was tested, and the TERMINAL_BW (3 h) was 219.1 g, the APTT (3 h) was 23.2 s and the Bas (3 h) was 0%. It also gave an Eos (3 h) of 0.6%, a Fbg (3 h) of 294.4 mg/dL and a Hb (3 h) of 13.3 g/dL. It also gave a Ht (3 h) of 41%, a Lym (3 h) of 83.4% and an MCH (3 h) of 20.4 pg. The MCHC (3 h) was 32.3%, the MCV (3 h) was 63.1 fL and the Mono (3 h) was 2.2%. The Neu (3 h) was 13.2%, the PT (3 h) was 15.5 s and the Plat (3 h) was 111.7 x10_4/uL. It also gave an RBC (3 h) of 650.2 x10_4/ul, a Ret (3 h) of 8% and a WBC (3 h) of 78.7 x10_2/uL. It also gave a KIDNEY_L (3 h) of 1 g, a KIDNEY_R (3 h) of 1 g and a KIDNEY_TOTAL (3 h) of 2 g. For the same molecule, the LIVER (3 h) was 10 g, the A/G (3 h) was 1.2 and the ALP (3 h) was 1607 IU/L. The ALT (3 h) was 42 IU/L, the AST (3 h) was 77.8 IU/L and the BUN (3 h) was 13.4 mg/dL. For the same molecule, the CRE (3 h) was 0.2 mg/dL, the Ca (3 h) was 10.8 mg/dL and the Cl (3 h) was 105.2 meq/L. For the same molecule, the DBIL (3 h) was 0 mg/dL, the GLC (3 h) was 180 mg/dL and the IP (3 h) was 8.1 mg/dL. For the same molecule, the K (3 h) was 4.3 meq/L, the LDH (3 h) was 163.6 IU/L and the Na (3 h) was 142.2 meq/L. It also gave a PL (3 h) of 130.6 mg/dL, an RALB (3 h) of 3 g/dL and a TBIL (3 h) of 0.02 mg/dL. The TC (3 h) was 71.8 mg/dL, the TG (3 h) was 63.4 mg/dL and the TP (3 h) was 5.4 g/dL. For the same molecule, the gamma-GTP (3 h) was 1.8 IU/L, the TERMINAL_BW (6 h) was 216.7 g and the APTT (6 h) was 23.8 s. The Bas (6 h) was 0%, the Eos (6 h) was 0.6% and the Fbg (6 h) was 293.2 mg/dL. It also gave a Hb (6 h) of 13.3 g/dL, a Ht (6 h) of 41.1% and a Lym (6 h) of 80.6%. It also gave an MCH (6 h) of 20.6 pg, an MCHC (6 h) of 32.3% and an MCV (6 h) of 63.8 fL. For the same molecule, the Mono (6 h) was 2.8%, the Neu (6 h) was 15.4% and the PT (6 h) was 16.1 s. The Plat (6 h) was 112 x10_4/uL, the RBC (6 h) was 643.6 x10_4/ul and the Ret (6 h) was 7.8%. It also gave a WBC (6 h) of 116.8 x10_2/uL, a KIDNEY_L (6 h) of 0.9 g and a KIDNEY_R (6 h) of 1 g. For the same molecule, the KIDNEY_TOTAL (6 h) was 2 g, the LIVER (6 h) was 9.2 g and the A/G (6 h) was 1.2. For the same molecule, the ALP (6 h) was 1313.8 IU/L, the ALT (6 h) was 40.8 IU/L and the AST (6 h) was 74.6 IU/L. For the same molecule, the BUN (6 h) was 12.8 mg/dL, the CRE (6 h) was 0.1 mg/dL and the Ca (6 h) was 10.5 mg/dL. For the same molecule, the Cl (6 h) was 105.4 meq/L, the DBIL (6 h) was 0 mg/dL and the GLC (6 h) was 190.8 mg/dL. The IP (6 h) was 9.3 mg/dL, the K (6 h) was 4.4 meq/L and the LDH (6 h) was 174.8 IU/L. For the same molecule, the Na (6 h) was 141.2 meq/L, the PL (6 h) was 132.6 mg/dL and the RALB (6 h) was 2.9 g/dL. The TBIL (6 h) was 0.022 mg/dL, the TC (6 h) was 73.2 mg/dL and the TG (6 h) was 48.6 mg/dL. It also gave a TP (6 h) of 5.3 g/dL, a gamma-GTP (6 h) of 1.2 IU/L and a TERMINAL_BW (9 h) of 217.4 g. It also gave an APTT (9 h) of 23.3 s, a Bas (9 h) of 0% and an Eos (9 h) of 0.8%. It also gave a Fbg (9 h) of 309.2 mg/dL, a Hb (9 h) of 12.9 g/dL and a Ht (9 h) of 39.8%. It also gave a Lym (9 h) of 80%, an MCH (9 h) of 20.5 pg and an MCHC (9 h) of 32.3%. For the same molecule, the MCV (9 h) was 63.4 fL, the Mono (9 h) was 2.6% and the Neu (9 h) was 15.8%. The PT (9 h) was 15.6 s, the Plat (9 h) was 123.4 x10_4/uL and the RBC (9 h) was 628 x10_4/ul. It also gave a Ret (9 h) of 8.2%, a WBC (9 h) of 100.7 x10_2/uL and a KIDNEY_L (9 h) of 1 g. It also gave a KIDNEY_R (9 h) of 1 g, a KIDNEY_TOTAL (9 h) of 2 g and an LIVER (9 h) of 9.4 g. The A/G (9 h) was 1.3, the ALP (9 h) was 1276.4 IU/L and the ALT (9 h) was 36.8 IU/L. For the same molecule, the AST (9 h) was 70.2 IU/L, the BUN (9 h) was 13.6 mg/dL and the CRE (9 h) was 0.2 mg/dL. For the same molecule, the Ca (9 h) was 10.5 mg/dL, the Cl (9 h) was 104.8 meq/L and the DBIL (9 h) was 0 mg/dL. It also gave a GLC (9 h) of 202.6 mg/dL, an IP (9 h) of 9.6 mg/dL and a K (9 h) of 4.1 meq/L. The LDH (9 h) was 170 IU/L, the Na (9 h) was 141.2 meq/L and the PL (9 h) was 128.4 mg/dL. For the same molecule, the RALB (9 h) was 3 g/dL, the TBIL (9 h) was 0.02 mg/dL and the TC (9 h) was 70.4 mg/dL. The TG (9 h) was 69.8 mg/dL, the TP (9 h) was 5.3 g/dL and the gamma-GTP (9 h) was 1.6 IU/L. It also gave a TERMINAL_BW (24 h) of 233 g, an APTT (24 h) of 23.5 s and a Bas (24 h) of 0%. For the same molecule, the Eos (24 h) was 0.8%, the Fbg (24 h) was 308.8 mg/dL and the Hb (24 h) was 13.3 g/dL. The Ht (24 h) was 40.9%, the Lym (24 h) was 82.8% and the MCH (24 h) was 20.5 pg. For the same molecule, the MCHC (24 h) was 32.5%, the MCV (24 h) was 63.1 fL and the Mono (24 h) was 2.2%. The Neu (24 h) was 13.4%, the PT (24 h) was 15.9 s and the Plat (24 h) was 115.3 x10_4/uL. The RBC (24 h) was 649.2 x10_4/ul, the Ret (24 h) was 7.8% and the WBC (24 h) was 120.1 x10_2/uL. The KIDNEY_L (24 h) was 1 g, the KIDNEY_R (24 h) was 1 g and the KIDNEY_TOTAL (24 h) was 2 g. It also gave an LIVER (24 h) of 11 g, an A/G (24 h) of 1.2 and an ALP (24 h) of 1565 IU/L. It also gave an ALT (24 h) of 45.4 IU/L, an AST (24 h) of 73.6 IU/L and a BUN (24 h) of 17.8 mg/dL. The CRE (24 h) was 0.2 mg/dL, the Ca (24 h) was 10.9 mg/dL and the Cl (24 h) was 105.4 meq/L. For the same molecule, the DBIL (24 h) was 0 mg/dL, the GLC (24 h) was 197.8 mg/dL and the IP (24 h) was 7.3 mg/dL. For the same molecule, the K (24 h) was 4.7 meq/L, the LDH (24 h) was 219 IU/L and the Na (24 h) was 140.6 meq/L. It also gave a PL (24 h) of 166 mg/dL, an RALB (24 h) of 3 g/dL and a TBIL (24 h) of 0.01 mg/dL. The TC (24 h) was 85 mg/dL, the TG (24 h) was 115 mg/dL and the TP (24 h) was 5.5 g/dL. The gamma-GTP (24 h) was 1 IU/L.
